{"source": "patent US20220162221A1", "about": "“Imaging Agents” (UCB Biopharma SRL, priority 2017, published 2022)", "key": {"[1]": {"system": "adenosine transporter (ADET)", "assay": "Adenosine transporter binding, CEREP panel", "design": "species or system human", "conditions": "at 10 μM, n=1 in duplicate", "protocol": "(§1) Compound selectivity for human D1R was assessed at 10 μM at CEREP against a panel of 80 targets (n=1 with data in duplicate) including receptors, transporters, enzymes and ion channels. Potentially relevant affinity was identified for only 3 targets: dopamine D5 receptor (D5R), tachykinin NK1 receptors and adenosine transporter (ADET) with >60% inhibition at 10 μM of compound (±)-(I). Affinity (pKi) of compound of formula (±)-I for human DSR, NK1 receptor and ADET were then measured."}, "[2]": {"molecular_target": "T1, dopamine D5 receptor (D5R) (Homo sapiens, UniProt P21918)", "T1 construct": "purchased CEREP, contract assay", "T1 sequence (P21918 whole entry)": "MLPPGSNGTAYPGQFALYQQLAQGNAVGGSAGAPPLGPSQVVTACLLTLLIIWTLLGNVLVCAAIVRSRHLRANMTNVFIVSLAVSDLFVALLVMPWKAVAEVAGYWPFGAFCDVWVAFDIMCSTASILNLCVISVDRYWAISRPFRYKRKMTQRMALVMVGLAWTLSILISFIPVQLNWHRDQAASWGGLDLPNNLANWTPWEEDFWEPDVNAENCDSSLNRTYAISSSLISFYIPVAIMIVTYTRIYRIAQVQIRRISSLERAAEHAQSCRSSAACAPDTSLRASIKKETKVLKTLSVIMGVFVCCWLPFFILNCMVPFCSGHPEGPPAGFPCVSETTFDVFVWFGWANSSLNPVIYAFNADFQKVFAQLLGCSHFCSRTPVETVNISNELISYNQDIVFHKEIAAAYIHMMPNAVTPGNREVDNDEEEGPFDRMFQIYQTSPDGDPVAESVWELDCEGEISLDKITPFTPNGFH", "assay": "D5R binding, CEREP panel and pKi follow-up", "protocol": "as §1"}, "human D1R": {"molecular_target": "human D1R (Homo sapiens, UniProt P21728)", "sequence (P21728 whole entry)": "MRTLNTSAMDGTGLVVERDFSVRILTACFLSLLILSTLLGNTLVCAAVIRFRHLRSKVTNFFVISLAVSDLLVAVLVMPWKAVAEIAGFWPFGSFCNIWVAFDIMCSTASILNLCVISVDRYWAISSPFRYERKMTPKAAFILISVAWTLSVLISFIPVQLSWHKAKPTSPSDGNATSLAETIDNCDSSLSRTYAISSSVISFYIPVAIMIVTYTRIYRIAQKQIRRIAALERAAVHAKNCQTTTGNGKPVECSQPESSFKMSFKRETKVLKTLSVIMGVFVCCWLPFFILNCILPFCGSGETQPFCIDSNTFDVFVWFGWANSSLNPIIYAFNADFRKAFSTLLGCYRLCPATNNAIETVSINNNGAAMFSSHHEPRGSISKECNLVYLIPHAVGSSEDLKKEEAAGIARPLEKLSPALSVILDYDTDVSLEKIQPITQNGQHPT", "assay": "[3H]SCH23390 radioligand competitive binding (CEREP)", "design": "purchased CEREP (Celle l'Evescault, France), contract assay", "protocol": "(§2) To assess compound (I) affinity and selectivity for D1, it has been tested in competitive radioligand binding assays. Competitive radioligand binding assays were then used to measure (±)-I affinity for D1 receptor and assess its selectivity regarding a large panel of 80 related and unrelated targets.\nAffinity (pKi) of Compound of formula (±)-(I) for recombinant human D1R was measured at CEREP (Celle l'Evescault, France) by [^3]SCH23390 radioligand competitive binding experiments."}, "hD1R in SK-N-MC cells": {"molecular_target": "hD1R in SK-N-MC cells (Homo sapiens, UniProt P21728)", "sequence (P21728 whole entry)": "as above", "assay": "cAMP HTRF D1 functional assay", "conditions": "cAMP HTRF", "quoted_text": "The reaction was terminated by consecutive additions of 10 μL d2 detection reagent and the cryptate reagent both diluted in lysis buffer. After a period of 60 min at room temperature, changes in HTRF emission ratio were determined and transformed in [cAMP]i using a standard curve."}, "tachykinin NK1 receptors": {"molecular_target": "T2, tachykinin NK1 receptors (Homo sapiens, UniProt P25103)", "T2 construct": "purchased CEREP, contract assay", "T2 sequence (P25103 whole entry)": "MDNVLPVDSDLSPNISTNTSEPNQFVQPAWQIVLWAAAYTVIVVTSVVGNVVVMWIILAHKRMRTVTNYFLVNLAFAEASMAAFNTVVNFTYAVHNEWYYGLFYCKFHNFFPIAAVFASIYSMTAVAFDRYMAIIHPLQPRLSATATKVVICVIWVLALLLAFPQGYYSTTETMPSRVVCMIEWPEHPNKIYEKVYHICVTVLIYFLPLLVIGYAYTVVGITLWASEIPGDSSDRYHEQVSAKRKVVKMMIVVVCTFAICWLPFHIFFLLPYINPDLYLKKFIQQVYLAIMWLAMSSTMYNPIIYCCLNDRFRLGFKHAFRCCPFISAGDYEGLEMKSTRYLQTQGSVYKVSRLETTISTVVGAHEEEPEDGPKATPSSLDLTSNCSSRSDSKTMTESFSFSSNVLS", "assay": "NK1 binding, CEREP panel", "conditions": "n=1 in duplicate", "protocol": "as §1"}, "[3]": {"system": "panel of 80 targets including receptors, transporters, enzymes and ion channels", "assay": "Selectivity panel of 80 targets (CEREP)", "assay_type": "binding", "protocol": "as §2, §1"}, "[4]": {"conditions": "competitive radioligand binding"}}, "data": [{"compound": "Cc1c(-c2ccc(Oc3nccc4occc34)cc2CF)n(C)c(=O)[nH]c1=O", "note": "(racemic) [Compound (±)-(I), 6-[2-(fluoromethyl)-4-(furo[3,2-c]pyridin-4-yloxy)phenyl]-1,5-dimethylpyrimidine-2,4(1H,3H)-dione]", "values": [{"measurement": "inhibition, adenosine transporter (ADET)", "setting": "[1]", "value": "> 60", "unit": "%"}, {"measurement": "Ki", "setting": "[2]", "value": 0.398, "unit": "nM"}, {"measurement": "inhibition at 10 µM", "setting": "[2]; at 10 μM, n=1 in duplicate", "value": "> 60", "unit": "%"}, {"measurement": "affinity for D5 receptor", "setting": "[2]; [4]", "value": "subnanomolar range"}, {"measurement": "Ki", "setting": "human D1R; [3H]SCH23390 competition, read-out: pKi for human D1R (converted)", "value": 0.631, "unit": "nM"}, {"measurement": "affinity for D1 receptor", "setting": "human D1R; [4]", "value": "subnanomolar range"}, {"measurement": "agonist-like effect on D1 receptor", "setting": "hD1R in SK-N-MC cells", "value": "significant direct agonist-like effect"}, {"measurement": "inhibition at 10 µM", "setting": "tachykinin NK1 receptors", "value": "> 60", "unit": "%"}, {"measurement": "selectivity with respect to the other 79 tested targets", "setting": "[3]; D1-like vs other targets", "value": "more than 1000 fold"}, {"measurement": "pKi for the other 79 tested targets", "setting": "[3]; all targets other than D1R, D5R excepted by text", "value": "≤ 6.0"}, {"measurement": "binding to the other tested targets", "setting": "[3]; panel of 80 targets", "value": "do not significantly bind"}]}]}
